According to patent US20260240851A1, “Treatment of Parkinson's Disease in a Patient Using a Glucocerebrosidase Activator” (BIAL - R&D Investments, S.A., priority 2023, published 2026):
Like-named read-outs stand apart in the source and are kept apart here.

Assays:
[1] = LTI-291-002 multiple ascending dose study: plasma and CSF pharmacokinetics; type: in vivo, human; conditions: for AUC(0-t) / half-life / AUC(0-inf) / Cmax: human, plasma, oral
Protocol: (§1) This study was a phase 1, randomized, double-blind, placebo-controlled, multiple ascending dose study of Compound A in 4 cohorts of middle-aged to elderly healthy participants (aged 52 to 75 years). […] A total of 39 healthy subjects were enrolled in 4 sequential cohorts. Subjects in each cohort received once-daily oral doses of 3 mg (n=7), 10 mg (n=8), 30 mg (n=8), or 60 mg (n=8) Compound A or placebo (n=8) for 14 days. Pharmacokinetic parameters were determined for each dose at Day 1, Day 7, and Day 14. Cerebrospinal fluid samples for Compound A concentrations were measured before the first dose and 4 hours after the last dose for each dose level. GluCer, glucosyl sphingosine (GluSph), and lactosyl-ceramide (LacCer) were measured in plasma, PBMCs, and CSF as biomarkers of pharmacological effects. Pharmacodynamic measurements consisted of battery of CNS (NeuroCart®) assessments including Saccadic Eye Movements, Smooth Pursuit Eye Movements, Adaptive Tracking, Body Sway, Visual Verbal Learning Test, and pharmaco-EEG.

[2] = LTI-291-002: CNS (NeuroCart) assessments; type: in vivo, human
Protocol: as §1

[3] = LTI-291-003: NeuroCart, MMSE, MDS-UPDRS, EEG; type: in vivo, human; conditions: 10, 30, 60 mg daily for 28 days, GBA-PD
Protocol: (§2) GluCer, GluSph, and LacCer were measured in plasma, PBMCs, and CSF as biomarkers of pharmacological effects. The pharmacodynamic evaluations also consisted of a battery of NeuroCart assessments (Saccadic Eye Movements, Smooth Pursuit Eye Movements, Adaptive Tracking, Body Sway, and Visual Verbal Learning Test); functional outcome measures (MDS-UPDRS Part III, and the MMSE); and pharmaco-EEG.

[4] = system: GluCer, GluSph and LacCer in plasma, PBMCs and CSF; assay: LTI-291-003: glycolipid biomarkers; type: in vivo, human; conditions: for GluCer and LacCer in PBMCs: GBA-PD
Protocol: as §2

[5] = BIA 28-6156-107: safety and tolerability; type: in vivo, human
clinical = conditions: both, human, plasma, 60 mg; for AUC(0-t): Sinemet portion, geometric mean
Protocol: This was a Phase 1, non-randomized, open-label, 2-cohort, cross-over, DDI study in healthy male and female subjects.
In Cohort 1, a single oral dose 100 mg/25 mg levodopa-carbidopa (Sinemet®) IR was administered alone on Day 1.

[6] = 10 mg, 10 mg daily, dose 7, geometric mean
[7] = 10 mg, 10 mg daily, dose 14, geometric mean
[8] = 30 mg, 30 mg daily, dose 1, geometric mean
[9] = 30 mg, 30 mg daily, dose 7, geometric mean
[10] = 30 mg, 30 mg daily, dose 14, geometric mean
[11] = 60 mg, 60 mg daily, dose 1, geometric mean
[12] = 60 mg, 60 mg daily, dose 7, geometric mean
[13] = 60 mg, 60 mg daily, dose 14, geometric mean

## CCCCCO[C@H]1CC[C@H](NC(=O)c2cnn3c(C)cc(C)nc23)CC1 [Compound A, 5,7-dimethyl-N-((1S*,4S)-4-(pentyloxy)cyclohexyl)pyrazolo[1,5-a]pyrimidine-3-carboxamide]
[1]; 10 mg, 10 mg daily, dose 1, geometric mean, read-out: AUC0-last
  AUC(0-t): 3380 ng·h/mL
[1]; 10 mg, 10 mg daily, dose 1, geometric mean, read-out: t½ (converted)
  half-life: 20.7 h
[1]; [6]
  AUC(0-inf): 17800 ng·h/mL
  Cmax: 505 ng/mL
[1]; 10 mg, 10 mg daily, dose 7, geometric mean, read-out: AUC0-24
  AUC(0-t): 7730 ng·h/mL
[1]; 10 mg, 10 mg daily, dose 7, geometric mean, read-out: AUC0-last
  AUC(0-t): 7820 ng·h/mL
[1]; 10 mg, 10 mg daily, dose 7, geometric mean, read-out: t½ (converted)
  half-life: 28.7 h
[1]; [7]
  AUC(0-inf): 18600 ng·h/mL
  Cmax: 493 ng/mL
[1]; 10 mg, 10 mg daily, dose 14, geometric mean, read-out: AUC0-24
  AUC(0-t): 7510 ng·h/mL
[1]; 10 mg, 10 mg daily, dose 14, geometric mean, read-out: AUC0-last
  AUC(0-t): 11900 ng·h/mL
[1]; 10 mg, 10 mg daily, dose 14, geometric mean, read-out: t½ (converted)
  half-life: 32.1 h
[1]; [8]
  AUC(0-inf): 22600 ng·h/mL
  Cmax: 869 ng/mL
[1]; 30 mg, 30 mg daily, dose 1, geometric mean, read-out: AUC0-24
  AUC(0-t): 10600 ng·h/mL
[1]; 30 mg, 30 mg daily, dose 1, geometric mean, read-out: AUC0-last
  AUC(0-t): 10400 ng·h/mL
[1]; 30 mg, 30 mg daily, dose 1, geometric mean, read-out: t½ (converted)
  half-life: 26 h
[1]; [9]
  AUC(0-inf): 56800 ng·h/mL
  Cmax: 1600 ng/mL
[1]; 30 mg, 30 mg daily, dose 7, geometric mean, read-out: AUC0-24
  AUC(0-t): 26500 ng·h/mL
[1]; 30 mg, 30 mg daily, dose 7, geometric mean, read-out: AUC0-last
  AUC(0-t): 26300 ng·h/mL
[1]; 30 mg, 30 mg daily, dose 7, geometric mean, read-out: t½ (converted)
  half-life: 25.7 h
[1]; [10]
  AUC(0-inf): 139000 ng·h/mL
  Cmax: 1500 ng/mL
[1]; 30 mg, 30 mg daily, dose 14, geometric mean, read-out: AUC0-24
  AUC(0-t): 26200 ng·h/mL
[1]; 30 mg, 30 mg daily, dose 14, geometric mean, read-out: AUC0-last
  AUC(0-t): 45000 ng·h/mL
[1]; 30 mg, 30 mg daily, dose 14, geometric mean, read-out: t½ (converted)
  half-life: 75 h
[1]; [11]
  AUC(0-inf): 39300 ng·h/mL
  Cmax: 1950 ng/mL
[1]; 60 mg, 60 mg daily, dose 1, geometric mean, read-out: AUC0-24
  AUC(0-t): 19600 ng·h/mL
[1]; 60 mg, 60 mg daily, dose 1, geometric mean, read-out: AUC0-last
  AUC(0-t): 19200 ng·h/mL
[1]; 60 mg, 60 mg daily, dose 1, geometric mean, read-out: t½ (converted)
  half-life: 25.1 h
[1]; [12]
  AUC(0-inf): 139000 ng·h/mL
  Cmax: 3190 ng/mL
[1]; 60 mg, 60 mg daily, dose 7, geometric mean, read-out: AUC0-24
  AUC(0-t): 52100 ng·h/mL
[1]; 60 mg, 60 mg daily, dose 7, geometric mean, read-out: AUC0-last
  AUC(0-t): 50300 ng·h/mL
[1]; 60 mg, 60 mg daily, dose 7, geometric mean, read-out: t½ (converted)
  half-life: 35.8 h
[1]; [13]
  AUC(0-inf): 130000 ng·h/mL
  Cmax: 3070 ng/mL
[1]; 60 mg, 60 mg daily, dose 14, geometric mean, read-out: AUC0-24
  AUC(0-t): 50900 ng·h/mL
[1]; 60 mg, 60 mg daily, dose 14, geometric mean, read-out: AUC0-last
  AUC(0-t): 82000 ng·h/mL
[1]; 60 mg, 60 mg daily, dose 14, geometric mean, read-out: t½ (converted)
  half-life: 32.9 h
[1]; after the 1st dose, across dose levels, read-out: mean t1/2
  half-life: 20.7 to 27.9 h
[1]; after the 7th dose, across dose levels, read-out: mean t1/2
  half-life: 25.7 to 35.8 h
[1]; after the 14th dose, across dose levels, read-out: mean t1/2
  half-life: 32.1 to 75 h
[1]; once-daily dosing
  steady-state conditions: achieved by the 7th daily dose
[2]; 3 mg vs placebo
  EEG Alpha-power Pz-Oz, eyes closed: significant decrease
[2]; 3-60 mg daily for 14 days
  effects on CNS (Neurocart) tests: no dose-dependent effects
[2]; 10 and 30 mg groups vs placebo
  saccadic inaccuracy: significant increase
[2]; vs placebo
  saccadic peak velocity or reaction time: No changes
[3]
  effects on NeuroCart tests, MMSE, MDS-UPDRS, EEG: no dose-dependent effects
[4]; 7 and 14 days of treatment
  GluCer and LacCer in PBMCs: statistically significant increase
[4]; 10, 30, 60 mg/day
  dose-response or exposure-response of PBMC glycolipid effects: no obvious dose-response or exposure response relationship
[4]; 28 days
  plasma or CSF levels of glycolipids: no obvious changes
[4]; 28 days of treatment
  GluCer and LacCer in PBMCs: smaller increase
[4]; Gaucher or major vs polymorphism GBA1 mutations
  PBMC glycolipid effects by severity of GBA1 mutation: generally greater
[4]; vs placebo
  Intracellular GluSph in PBMCs: did not show a clear response
[5]; 60 mg Compound A with 25 mg/100 mg immediate-release carbidopa-levodopa
  AEs: No AEs were reported
[5]; 60 mg Compound A with 300 mg extended-release carbamazepine
  subjects reporting AEs: 25.0%
[5]; after 60 mg Compound A alone, 12 subjects
  subjects reporting AEs: 16.7%
[5]; in vivo
  SAEs: No SAEs were reported
  vital signs, physical examinations, ECG parameters, C-SSRS: no clinically significant safety observations
clinical
  Cmax: 1940 ng/mL
  Tmax: 2 h
clinical; AUC0-24, 60 mg Compound A alone
  AUC(0-t): 22800 ng·h/mL
clinical; AUC0-t, 60 mg Compound A alone
  AUC(0-t): 22700 ng·h/mL
